Each structure is given as a SMILES string. pEC50: −log10 of the molar value.

The subject of the assay is HIV-1 (IIIB strain). Put plainly: Anti-HIV cytoprotection assay (XTT), HIV-1 IIIB in CEM-SS cells. The assay is classed as cell-based. To be noted: Human immunodeficiency virus 1, IIIB, CEM-SS, CEM-SS cell line; read-out: Inhibitory activity (EC50) against HIV-1 (IIIB strain). The text has this: a) Inhibitory Activity of the Lymphocytropic Virus Strain HIV-1 (IIIB) in the CEM-SS Cell Line.
The evaluation was done by ImQuest BioSciences, Inc. (Frederick, Md., USA). CEM-SS cells [Foley G. E. et al. Continuous Culture of Human Lymphoblasts from Peripheral Blood of a Child with Acute Leukemia. Cancer 1965, 18, 522-529] obtained through the NIH AIDS Research and Reference Reagent Program (Manassas, Va., USA) were passaged in T-75 flasks prior to use cell culture medium consisting of RPMI1640 medium (Lonza; Walkersville, Md., USA) supplemented with 10% heat inactivated fetal bovine serum (Gibco; Grand Island, N.Y.), […] L-glutamine (Lonza), […] penicillin (Lonza) and […] streptomycin (Lonza) for antiviral analysis. The CEM-SS cells were kept in RPMI 140 medium supplemented with 10% heat inactivated bovine fetal serum, 2 mM glutamine, 100 U/ml penicillin, and 100 μg/ml streptomycin.
A lymphocytropic HIV-1 IIIB strain [Popovic, M. et al. Detection, isolation, and continuous production of cytopathic retroviruses (HTLV-III) from patients with AIDS and pre-AIDS. Science. 1984, 224 (4648), 497-500] was chosen for a virus to be analyzed. The virus was obtained through the NIH AIDS Research and Reference Reagents Program and grown in CEM-SS cells to produce a stock virus pool. A pre-titrated aliquot of the virus was removed from the freezer (−80° C.) and allowed to slowly thaw to room temperature in a biological safety cabinet. The virus was diluted in a tissue culture medium so that the amount of virus added in 50 μl per well was sufficient to kill 85 to 95% of the cells 6 days after infection. HIV-1 IIIB was grown and titrated in CEM-SS cells. The inhibitory effect of […] was evaluated in CEM-SS cells as described earlier [Nara, P. L. at al. Simple, rapid, quantitative, syncytium-forming microassay for the detection of human immunodeficiency virus neutralizing antibody. AIDS Res. Hum. Retroviruses 1987, 3, 283-302.] in microtiter plate anti-HIV assays to quantitatively assess the ability of a compound to inhibit HIV-induced cell death. Quantification was carried out using 2,3-bis-(2-methoxy-4-nitro-5-[…])-(2H)-tetrazolium-5-carboxanilide (XTT) tetrazolium, which is metabolized to a stained formazan product through viable […] The compounds given in Table 1 were dissolved at 10 μM in DMSO and stored at −20° C.
Test materials were evaluated using antiviral assays in triplicate in concentrations of 30 and 10 nM. The compounds shown in table 1 were dissolved at 10 μM in DMSO and stored at −20° C. […] Sixty nanomolar concentrations of each compound (2 times that of the test concentration in the well) were prepared by diluting 10 μM DMSO stock 1:100 in cell culture medium (10 μl of compound added to 990 μl of the medium) followed by 1:10 dilution (10 μl of the compound was added to 90 μl of the medium), then 6 μl was added to 994 μl of the medium; […] μl was added to a 96-well microtiter plate in triplicate to ensure efficacy and one colorimetric well. Twenty nanomolar concentrations of each compound (twice as much as the test concentration in the well) were prepared by diluting 10 μM DMSO with the original 1:100 in cell culture medium (10 μl of the compound added to 990 μl of the medium) followed by diluting […] (10 μl of the compound was added to 900 μl of the medium), then 20 μl was added to 980 μl of the medium; 100 μl was added to a 96-well microtiter plate in triplicate to ensure efficacy and one colorimetric well.
Azidothymidine (AZT) was purchased from Sigma Aldrich (USA) and evaluated as a positive control compound in an antiviral assay using a six-concentration reaction curve on each assay plate.
Test compounds were initially evaluated for HIV-1 IIIB strain in CEM-SS cells at test concentrations of 30 and 10 nM. […]
Background: Tetrazolium assays rely on reduction of a dye to a coloured formazan, in cell work by metabolically active cells.
As a reminder, the pEC50 is the negative decadic logarithm of the EC50, by convention in mol/L. For the compound `C[C@H]1CO[C@@H]2Cn3cc(C(=O)NCc4ccc5c(ccn5C)c4)c(=O)c(O)c3C(=O)N12` [Compound 1.1.33, (3S,11aR)-6-hydroxy-3-methyl-N-[(1-methyl-1H-indol-5-yl)methyl]-5,7-dioxo-2,3,5,7,11,11a-hexahydro[1,3]oxazolo[3,2-a]pyrido[1,2-d]pyrazine-8-carboxamide], the pEC50 is 7.52 to 8.00. With `C[C@H]1CO[C@@H]2Cn3cc(C(=O)NCc4ccc5c(c4)OCO5)c(=O)c(O)c3C(=O)N12` [Compound 1.1.34, (3S,11aR)-N-(1,3-benzodioxol-5-ylmethyl)-6-hydroxy-3-methyl-5,7-dioxo-2,3,5,7,11,11a-hexahydro[1,3]oxazolo[3,2-a]pyrido[1,2-d]pyrazine-8-carboxamide], the pEC50 was 8.00 to 8.70. Take `C[C@H]1CO[C@@H]2Cn3cc(C(=O)NCc4cc5c(cc4Br)OCO5)c(=O)c(O)c3C(=O)N12` [Compound 1.1.35, (3S,11aR)-N-[(6-bromo-1,3-benzodioxol-5-yl)methyl]-6-hydroxy-3-methyl-5,7-dioxo-2,3,5,7,11,11a-hexahydro[1,3]oxazolo[3,2-a]pyrido[1,2-d]pyrazine-8-carboxamide]: the pEC50 is more than 8.70. In the case of `C[C@H]1CO[C@@H]2Cn3cc(C(=O)NCc4nc5cc(Cl)ccc5o4)c(=O)c(O)c3C(=O)N12` [Compound 1.1.38, (3S,11aR)-6-hydroxy-3-methyl-N-[(5-chloro-1,3-benzoxazol-2-yl)methyl]-5,7-dioxo-2,3,5,7,11,11a-hexahydro[1,3]oxazolo[3,2-a]pyrido[1,2-d]pyrazine-8-carboxamide], the pEC50 was less than 7.52. With `C[C@H]1CO[C@@H]2Cn3cc(C(=O)NCc4nc5ccc(Cl)cc5o4)c(=O)c(O)c3C(=O)N12` [Compound 1.1.39, (3S,11aR)-6-hydroxy-3-methyl-N-[(6-chloro-1,3-benzoxazol-2-yl)methyl]-5,7-dioxo-2,3,5,7,11,11a-hexahydro[1,3]oxazolo[3,2-a]pyrido[1,2-d]pyrazine-8-carboxamide], the pEC50 is 8.00 to 8.70.

On to `Cc1ccc2[nH]c(CNC(=O)c3cn4c(c(O)c3=O)C(=O)N3[C@@H](C)CO[C@@H]3C4)nc2c1` [Compound 1.1.40, (3S,11aR)-6-hydroxy-3-methyl-N-[(5-methyl-1H-benzimidazol-2-yl)methyl]-5,7-dioxo-2,3,5,7,11,11a-hexahydro[1,3]oxazolo[3,2-a]pyrido[1,2-d]pyrazine-8-carboxamide], for which the pEC50 is less than 7.52. For `C[C@H]1CO[C@@H]2Cn3cc(C(=O)NCc4nc5cc(F)ccc5[nH]4)c(=O)c(O)c3C(=O)N12` [Compound 1.1.41, (3S,11aR)-6-hydroxy-3-methyl-N-[(5-ϕTopo-1H-benzimidazol-2-yl)methyl]-5,7-dioxo-2,3,5,7,11,11a-hexahydro[1,3]oxazolo[3,2-a]pyrido[1,2-d]pyrazine-8-carboxamide], the pEC50 is 7.52 to 8.00. For the compound `C[C@H]1CO[C@@H]2Cn3cc(C(=O)NCc4nc5ccccc5n4C)c(=O)c(O)c3C(=O)N12` [Compound 1.1.42, (3S,11aR)-6-hydroxy-3-methyl-N-[(1-methyl-benzimidazol-2-yl)methyl]-5,7-dioxo-2,3,5,7,11,11a-hexahydro[1,3]oxazolo[3,2-a]pyrido[1,2-d]pyrazine-8-carboxamide], the pEC50 was less than 7.52. Next, `C[C@H]1CO[C@@H]2Cn3cc(C(=O)NCc4nc5ccc(Cl)cc5n4C)c(=O)c(O)c3C(=O)N12` [Compound 1.1.43, (3S,11aR)-6-hydroxy-3-methyl-N-[(1-methyl-6-chlorobenzimidazol-2-yl)methyl]-5,7-dioxo-2,3,5,7,11,11a-hexahydro[1,3]oxazolo[3,2-a]pyrido[1,2-d]pyrazine-8-carboxamide]: less than 7.52. For `CC(C)n1c(CNC(=O)c2cn3c(c(O)c2=O)C(=O)N2[C@@H](C)CO[C@@H]2C3)nc2ccccc21` [Compound 1.1.44, (3S,11aR)-6-hydroxy-3-methyl-N-{[1-isopropyl-1H-benzimidazol-2-yl]methyl}-5,7-dioxo-2,3,5,7,11,11a-hexahydro[1,3]oxazolo[3,2-a]pyrido[1,2-d]pyrazine-8-carboxamide], the pEC50 was less than 7.52.

The values above are taken from patent US20230020329A1, “Annelated 9-hydroxy-1,8-dioxo-1,3,4,8-tetrahydro-2H-pyrido[1,2-a]pyrazine-7-carboxamides as HIV integrase inhibitors, methods of preparation and application thereof” (priority 2019, published 2023).
